Measurements taken from ChEMBL document CHEMBL5126506, “Coumarin-benzimidazole hybrids: A review of developments in medicinal chemistry” (Eur J Med Chem, 2022).
Values after ≈ are worked out from the molar mass of the structure shown.

What was measured:
Aspergillus flavus [1] = assay: […] activity against Aspergillus flavus assessed as cell growth inhibition measured after 24 hrs by serial broth-dilution method; type: functional
Aspergillus flavus [2] = assay: […] activity against Aspergillus flavus assessed as zone of inhibition measured after 24 hrs by agar well diffusion method; type: functional
Bacillus subtilis [3] = assay: Antibacterial activity against Bacillus subtilis assessed as zone of inhibition measured after 24 hrs by agar well diffusion method; type: functional
Escherichia coli [4] = assay: Antibacterial activity against Escherichia coli assessed as zone of inhibition measured after 24 hrs by agar well diffusion method; type: functional
[5] = Antioxidant activity assessed as DPPH radical scavenging activity preincubated for 24 hrs followed by dark incubation 30 mins by UV-visible spectrophotometer method; type: functional
Pseudomonas aeruginosa [6] = assay: Antibacterial activity against Pseudomonas aeruginosa assessed as cell growth inhibition measured after 24 hrs by serial broth-dilution method; type: functional
Pseudomonas aeruginosa [7] = assay: Antibacterial activity against Pseudomonas aeruginosa assessed as zone of inhibition measured after 24 hrs by agar well diffusion method; type: functional
[8] = Anticancer activity against mouse L1210/0 cells assessed as cell growth inhibition measured after 3 days by CCK-8 assay; type: functional, cell-based; conditions: L1210/0, 72 h
MOLT-4 = assay: Anticancer activity against human Molt4/C8 cells assessed as cell growth inhibition measured after 3 days by CCK-8 assay; type: functional, cell-based; conditions: MOLT-4, 72 h
CCRF-CEM = assay: Anticancer activity against human CEM/0 cells assessed as cell growth inhibition measured after 3 days by CCK-8 assay; type: functional, cell-based; conditions: 72 h
Rattus norvegicus [9] = assay: Antiinflammatory activity in formalin induced Wistar rat paw oedema model assessed as inhibition of paw oedema administered up to 6 hrs by plethysmograph analysis; type: functional, organism-based; set-up: scale not given: the % may be the effect or the level left
Metaphire sieboldi = assay: Anthelmintic activity against Metaphire sieboldi assessed as mean paralysing time up to 0.5% w/v; type: functional
Sprivivirus cyprinus = assay: Antiviral activity against Carp sprivivirus infected Fathead minnow EPC cells assessed as assessed as suppression of virus-induced cytopathic effect incubated for 48 hrs by CCK-8 assay; type: functional, organism-based
[10] = Anticancer activity against human KATO III stomach cancer cell line assessed as cell growth inhibition measured after 3 days by CCK-8 assay; type: functional; conditions: 72 h, time 3 day
K562 = assay: Anticancer activity against human K562 cells assessed as cell growth inhibition measured after 3 days by CCK-8 assay; type: functional; conditions: K562, 72 h, time 3 day
SNU1 = assay: Anticancer activity against human SNU1 cells assessed as cell growth inhibition measured after 3 days by CCK-8 assay; type: functional; conditions: SNU1, 72 h, time 3 day
AGS = assay: Anticancer activity against human AGS cells assessed as cell growth inhibition measured after 3 days by CCK-8 assay; type: functional; conditions: 72 h, time 3 day
Carbonic anhydrase 1 = Carbonic anhydrase 1 (Homo sapiens, UniProt P00915); assay: Inhibition of human carbonic anhydrase-1 by stopped flow CO2 hydrase assay
Chain of Carbonic anhydrase 1 (P00915 whole entry): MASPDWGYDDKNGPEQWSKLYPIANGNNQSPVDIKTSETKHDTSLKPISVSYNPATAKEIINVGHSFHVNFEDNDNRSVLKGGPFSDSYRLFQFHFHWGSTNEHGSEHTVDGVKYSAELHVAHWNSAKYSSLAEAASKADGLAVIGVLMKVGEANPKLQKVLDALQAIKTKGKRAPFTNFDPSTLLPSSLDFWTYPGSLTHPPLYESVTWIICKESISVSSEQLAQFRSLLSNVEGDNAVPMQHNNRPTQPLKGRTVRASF

Carbonic anhydrase 2 = Carbonic anhydrase 2 (Homo sapiens, UniProt P00918); assay: Inhibition of human carbonic anhydrase-2 by stopped flow CO2 hydrase assay
Mus musculus = assay: Antiinflammatory activity in carrageenan induced mouse paw oedema model assessed as inhibition of paw oedema at 100 mg/kg, po pretreated with compound for 30 mins followed by carrageenan injection measured after 5 hrs relative to control; type: functional; set-up: scale not given: the % may be the effect or the level left; conditions: time 5.5 hrs
[11] = Antioxidant activity assessed as DPPH radical scavenging activity incubated for 10 mins in dark condition by spectrophotometer method; type: functional
[12] = target: Serum paraoxonase/arylesterase 1 (Homo sapiens, UniProt P27169); assay: Inhibition of human PON1 using paraoxon as a substrate by regression analysis
Chain of Serum paraoxonase/arylesterase 1 (P27169 whole entry): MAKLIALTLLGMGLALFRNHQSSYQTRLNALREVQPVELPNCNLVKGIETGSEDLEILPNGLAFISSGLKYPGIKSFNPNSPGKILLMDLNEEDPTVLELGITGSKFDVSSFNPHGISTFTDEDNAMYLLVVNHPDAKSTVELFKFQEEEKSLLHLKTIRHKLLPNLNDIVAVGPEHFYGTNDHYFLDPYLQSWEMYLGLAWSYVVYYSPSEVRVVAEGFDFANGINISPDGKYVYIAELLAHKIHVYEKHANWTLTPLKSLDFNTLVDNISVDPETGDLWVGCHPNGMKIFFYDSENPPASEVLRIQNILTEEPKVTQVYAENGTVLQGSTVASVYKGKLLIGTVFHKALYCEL

PANC-1 = assay: Anticancer activity against human PANC-1 cells assessed as cell growth inhibition measured after 3 days by CCK-8 assay; type: functional; conditions: PANC-1, 72 h, time 3 day
SK-OV-3 = assay: Anticancer activity against human SK-OV-3 cells assessed as cell growth inhibition measured after 3 days by CCK-8 assay; type: functional; conditions: SK-OV-3, 72 h, time 3 day
Staphylococcus aureus [13] = assay: Antibacterial activity against Staphylococcus aureus ATCC 6538 assessed as zone of inhibition at 500 ug per disk measured after 24 hrs by NCCLS based disk diffusion method; type: functional; conditions: read-out: DIZ
Escherichia coli [14] = assay: Antibacterial activity against Escherichia coli assessed as zone of inhibition at 25 ug/ml; type: functional; conditions: read-out: DIZ
[15] = Antibacterial activity against Xanthomonas citri assessed as zone of inhibition at 25 ug/ml; type: functional; conditions: read-out: DIZ
Staphylococcus aureus [16] = assay: Antibacterial activity against beta lactamase positive Staphylococcus aureus ATCC 25923 assessed as zone of inhibition at 0.5 mg/ml incubated for 18 hrs by Kirby-Bauer disk diffusion method; type: functional; conditions: read-out: DIZ
A549 = assay: Anticancer activity against human A549 cells assessed as cell growth inhibition measured after 72 hrs by MTT assay; type: functional, cell-based; conditions: A549, 72 h
NCI-H460 = assay: Anticancer activity against human NCI-H460 cells assessed as cell growth inhibition measured after 72 hrs by MTT assay; type: functional, cell-based; conditions: NCI-H460, 72 h
[17] = Anticancer activity against human U-87 MG cells assessed as cell growth inhibition measured after 72 hrs by MTT assay; type: functional, cell-based, U-87MG ATCC
SMMC-7721 = assay: Anticancer activity against human SMMC-7721 cells assessed as cell growth inhibition measured after 72 hrs by MTT assay; type: functional, cell-based; conditions: SMMC-7721, 72 h
HeLa = assay: Anticancer activity against human HeLa cells assessed as cell growth inhibition by SRB method; type: functional
Rattus norvegicus [18] = assay: Antiinflammatory activity in carrageenan induced rat paw oedema model assessed as inhibition of paw oedema, ip pretreated with compound for 30 mins followed by carrageenan injection measured after 3 hrs relative to control; type: functional; set-up: scale not given: the % may be the effect or the level left; conditions: time 3.5 hrs
Bacillus subtilis [19] = assay: Antibacterial activity against Bacillus subtilis MTCC 1789 measured after 16 hrs by CLSI based microtitre broth dilution method; type: functional
Staphylococcus aureus [20] = assay: Antibacterial activity against Staphylococcus aureus ATCC 6538P measured after 16 hrs by CLSI based microtitre broth dilution method; type: functional
Pseudomonas aeruginosa [21] = assay: Antibacterial activity against Pseudomonas aeruginosa ATCC 25668 measured after 16 hrs by CLSI based microtitre broth dilution method; type: functional
Escherichia coli [22] = assay: Antibacterial activity against Escherichia coli MTCC 739 measured after 16 hrs by CLSI based microtitre broth dilution method; type: functional
HT-29 = assay: Anticancer activity against human HT-29 cells assessed as cell growth inhibition measured after 72 hrs by MTT assay; type: functional, cell-based; conditions: HT-29, 72 h

O=c1oc2ccccc2c(O)c1C(Sc1nc2ccccc2[nH]1)c1ccc(O)cc1 (stereo unspecified)
MIC (Aspergillus flavus [1]): 200 µg/mL (≈ 480 µM)
diameter of the inhibition zone (DIZ) (Aspergillus flavus [2]): 18 mm
diameter of the inhibition zone (DIZ) (Bacillus subtilis [3]): 19 mm
diameter of the inhibition zone (DIZ) (Escherichia coli [4]): 17 mm
IC50 [5]: 9.82 µg/mL (≈ 23.6 µM)

O=c1oc2ccccc2c(O)c1C(Sc1nc2ccccc2[nH]1)c1ccccc1 (stereo unspecified)
MIC (Pseudomonas aeruginosa [6]): 200 µg/mL (≈ 499 µM)
MIC (Aspergillus flavus [1]): 200 µg/mL (≈ 499 µM)
diameter of the inhibition zone (DIZ) (Pseudomonas aeruginosa [7]): 23 mm
diameter of the inhibition zone (DIZ) (Aspergillus flavus [2]): 18 mm

Cc1ccc2oc(=O)c(-c3nc4cc(Cl)ccc4[nH]3)cc2c1
IC50 [8]: 5.1 µg/mL (≈ 16.4 µM)
IC50 (MOLT-4): 3.6 µg/mL (≈ 11.6 µM)
IC50 (CCRF-CEM): 1.9 µg/mL (≈ 6.11 µM)

O=c1oc2ccc(Br)cc2cc1-c1nc2ccccc2[nH]1
Activity (Rattus norvegicus [9]): 45.45%

O=C(Cc1cc(=O)oc2ccccc12)Nc1nc2ccccc2[nH]1
Time (Metaphire sieboldi): 14 min

O=c1oc2ccc(Cl)cc2cc1-c1nc2ccccc2[nH]1
Activity (Rattus norvegicus [9]): 46.75%

O=c1ccc2cc(OCCCn3cnc4ccccc43)ccc2o1
IC50 (Sprivivirus cyprinus): 2.2 µg/mL (≈ 6.87 µM)

CCN(CC)c1ccc2cc(-c3nc4cc(C)ccc4n3C)c(=O)oc2c1
GI50 [10]: 590 nM
GI50 (K562): 670 nM
GI50 (SNU1): 120 nM
GI50 (AGS): 780 nM

O=c1cc(Cn2c[n+](CCCCn3c[n+](Cc4cc(=O)oc5cc(O)ccc45)c4ccccc43)c3ccccc32)c2ccc(O)cc2o1
IC50 (Carbonic anhydrase 1): 81000 nM
IC50 (Carbonic anhydrase 2): 94000 nM

COc1ccc(N2CC(c3cc(=O)oc4cc(C)ccc34)c3nc4ccccc4n3C2)cc1 (stereo unspecified)
Activity (Mus musculus): 52.61%

O=C(CC(Sc1nc2ccccc2[nH]1)c1ccccc1)c1cc2ccccc2oc1=O (stereo unspecified)
MIC (Pseudomonas aeruginosa [6]): 2200 µg/mL (≈ 5160 µM)
IC50 [11]: 35000 µg/mL (≈ 82100 µM)

Cc1c(C)c(C)c(Cn2c[n+](Cc3cc(=O)oc4cc(O)ccc34)c3ccccc32)c(C)c1C
IC50 [12]: 7840 nM

CCN(CC)c1ccc2cc(-c3nc4ccccc4n3C)c(=O)oc2c1
GI50 [10]: 100 nM
GI50 (PANC-1): 100 nM
GI50 (SK-OV-3): 70 nM
GI50 (K562): 70 nM

O=c1oc2ccccc2c(Nc2nc3ccccc3[nH]2)c1[N+](=O)[O-]
zone of inhibition at 500 µg/disc (Staphylococcus aureus [13]): 23 mm

CCOC(=O)c1sc(Sc2cc3ccccc3oc2=O)c(-c2nc3ccccc3[nH]2)c1N
zone of inhibition at 25 µg/mL (Escherichia coli [14]): 19 mm
zone of inhibition at 25 µg/mL [15]: 14 mm

CO[C@@H]1[C@@H](OC(N)=O)[C@@H](O)[C@H](Oc2ccc3c(O)c(NC(=O)c4ccc(O)c(CC=C(C)C)c4)c(=O)oc3c2C)OC1(C)C [NOVOBIOCIN]
zone of inhibition at 500 µg/mL (Staphylococcus aureus [16]): 25 mm

O=C(/C(Cl)=N/Nc1ccc(Cl)cc1Cl)n1c(-c2cc3ccccc3oc2=O)nc2ccccc21
IC50 (A549): 250 nM
IC50 (NCI-H460): 360 nM
IC50 [17]: 290 nM
IC50 (SMMC-7721): 220 nM

O=c1oc2ccccc2c(O)c1S(=O)(=O)Nc1nc2ccccc2[nH]1
zone of inhibition at 500 µg/mL (Staphylococcus aureus [16]): 13 mm

O=c1ccc2cc(OCCCCn3cnc4ccccc43)ccc2o1
IC50 (Sprivivirus cyprinus): 0.56 µg/mL (≈ 1.67 µM)

Cc1ccc(S(=O)(=O)n2c(-c3cc(=O)oc4ccc(C)cc34)nc3ccccc32)cc1
GI50 (HeLa): 35 µg/mL (≈ 81.3 µM)

O=c1cc(Cc2nc3ccccc3[nH]2)c2ccccc2o1
Activity (Rattus norvegicus [18]): 45%

O=c1oc2ccccc2cc1/C(Cn1cnc2ccccc21)=N\OCc1ccc(Cl)cc1
MIC (Bacillus subtilis [19]): 0.95 µg/mL (≈ 2.14 µM)
MIC (Staphylococcus aureus [20]): 1.56 µg/mL (≈ 3.51 µM)
MIC (Pseudomonas aeruginosa [21]): 3.12 µg/mL (≈ 7.03 µM)
MIC (Escherichia coli [22]): 3.12 µg/mL (≈ 7.03 µM)

COc1ccc2oc(=O)cc(-c3nc4ccccc4n3S(=O)(=O)c3ccc(C)cc3)c2c1
GI50 (HeLa): 35 µg/mL (≈ 78.4 µM)

O=c1oc2ccc(Cl)cc2cc1-c1nc2cc(Cl)ccc2[nH]1
IC50 [8]: 0.67 µg/mL (≈ 2.02 µM)
IC50 (MOLT-4): 0.44 µg/mL (≈ 1.33 µM)
IC50 (CCRF-CEM): 0.42 µg/mL (≈ 1.27 µM)

CN[C@@H]1[C@H](O[C@H]2[C@H](O[C@H]3[C@H](O)[C@@H](O)[C@H](N=C(N)N)[C@@H](O)[C@@H]3N=C(N)N)O[C@@H](C)[C@]2(O)C=O)O[C@@H](CO)[C@H](O)[C@H]1O [STREPTOMYCIN]
MIC (Pseudomonas aeruginosa [6]): 2200 µg/mL (≈ 3780 µM)

Cc1ccc2c(Cc3nc4ccccc4[nH]3)cc(=O)oc2c1
Activity (Rattus norvegicus [18]): 45%

O=C(CCl)n1c(-c2cc3ccccc3oc2=O)nc2ccccc21
IC50 (A549): 290 nM
IC50 (NCI-H460): 590 nM
IC50 (HT-29): 570 nM
IC50 [17]: 340 nM
